Data reported in patent US8680075B2, “Methods and compositions for inhibiting cellular proliferation and surgical adhesion” (Novelmed Therapeutics, Inc., priority 2009, dated 2014).
Entries after “also recorded” stand apart in the source; their conditions may differ.

Experiments:
[1] = tested on: epidural fibrosis after laminectomy; assay: Rat laminectomy epidural fibrosis model, Example 8; type: in vivo
Procedure: Epidural fibrosis was investigated after laminectomies in adult Lewis rats. Laminectomies were performed at the lumbar 3 (L3) and 5 (L5) vertebrae. The test agent gel was applied to one site and saline (control) was applied to the other. Two weeks later, the laminectomy sites were examined for fibrosis by gross dissection as previously described. Briefly, rats were anesthetized. The dorsal skin was incised and the paraspinal muscles were separated from the spinous processes of lumbar vertebrae L2 through L6 to expose L3 and L5. The spinous processes of L3 and L5 and the vertebral lamina were removed, creating a rectangular laminectomy defect approximately 5×2 mm (FIG. 11A). The test material NM2040, or vehicle was placed onto the laminectomy site according to randomized, coded protocol (FIG. 11B). The formulation of NM2040 consisted of 10% gel foam powder, 20 mg/ml final concentration in sterile saline. The mixtures were placed in a syringe, autoclaved and allowed to cool to room temperature prior to placement into the laminectomy site. The fascia overlying the paraspinal muscles was sutured 5-0 polydoxanone PDS resorbable suture (Ethicon) and the skin incision was closed with 7.5 mm Michel wound clips. After two weeks, animals were anesthetized and subjected to gross evaluation. For gross evaluation, the wound site was reopened by incising the skin and separating the paraspinal muscles. Epidural scar formation was designated as the connective tissue between the test material and the dura mater. The thickness and toughness of the deep scar was evaluated by blunt dissection and scored 0 to 2.0 being the “no adhesions” with the dura mater clearly visible, 1 being a thin, lose connective tissue covering the dura that was easily removed, and 2 being a thick, dense tenacious adhesion that was difficult to impossible to remove without tearing the dura. Scoring was completed without knowledge of treatment at any of the laminectomy sites.

C3a = C3a formation in whole blood tubing loop (ELISA); type: cell-based; conditions: heparinized human whole blood 1:1 plasmalyte, tubing loop 2 hours 37° C.
Procedure: (§1) Chemotactic peptides are produced at the injury site, which can attract inflammatory cells at the injury site causing inflammation. NM2040 was tested to determine if this compound would inhibit the production of the C3a and C5a. The compound was incubated with blood at 37 degree in a rotating tubing loops. Whole blood from a healthy donor was collected into a polypropylene tube containing 5 units of heparin per ml of whole blood. The whole blood was diluted 1:1 with plasmalyte and aliquoted in 2 ml aliquots with and without drug treatments. PVC tubings of 4 mm diameter were filled with 2.0 ml of the heparinized human blood and closed into a loop with a short piece of silicon tubing. Sample and control tubing loops were rotated vertically in a water bath for 2 hours at 37° C. After incubation, blood samples were transferred into 5 ml siliconized eppendorf tubes. The samples were separated into two aliquots; one aliquot was subjected to flow cytometry studies and the other aliquot was centrifuged to separate the plasma for the measurement of C3a and C5a. The plasma samples were diluted to 5% with sample diluent buffer and the amounts of C3a and C5a were determined using ELISA assay kits following the manufacturer's instructions (Quidel Corporation, San Diego Calif.). […] In the same experiment, NM3015 was also evaluated. […]

platelets [2] = assay: Platelet activation after tubing loop (flow cytometry CD61/CD62P); type: cell-based, human; conditions: blood after tubing loop
Procedure: as §1, with “Sample and control tubing loops were rotated vertically in a water bath for 2 hours at 37° C. After incubation, blood samples were transferred into 5 ml siliconized eppendorf tubes. The samples were separated into two aliquots; one aliquot was subjected to flow cytometry studies and the other aliquot was centrifuged to separate the plasma for the measurement of C3a and C5a.” left out
(§2) Aliquots of blood following the tubing loop were stained with fluorescent labeled antibodies for flow cytometry studies. […] The samples were subjected to flow cytometry using CellQuest, BD-LSR I and the data were analyzed using WinList 5.0. Ln Median was used for calculating the shift in CD11b staining for neutrophils and monocytes. % gated dual labeled cells were quantified for platelet populations.

platelets [3] = assay: Platelet damage / platelet number after tubing loop (flow cytometry CD61/CD62P); type: cell-based, human; conditions: blood after tubing loop, FITC CD61 positive platelets
Procedure: as §1, with “The samples were separated into two aliquots; one aliquot was subjected to flow cytometry studies and the other aliquot was centrifuged to separate the plasma for the measurement of C3a and C5a.” left out
Aliquots of blood following the tubing loop were stained with fluorescent labeled antibodies for flow cytometry studies. […] The samples were subjected to flow cytometry using CellQuest, BD-LSR I and the data were analyzed using WinList 5.0. […]

C6 cells = assay: Glioma (C6 cell) proliferation in cloning ring culture; type: cell-based; conditions: five days; for concentration of maximal effect on glioma proliferation: C6 cells
Procedure: In a six well plate, a cloning ring of 6 mm diameter was placed and 60 μl aliquot of cellular suspension (stock containing 320,000 cells/ml of C6 cells) was prepared and placed in the center of each well of a six well plate in the cloning ring. After 4 h, the media was removed and the cells were incubated with Opti-MEM 1× media with and without the compound. These cultures were incubated at 37° C. and with 10% CO2 for five days, following which the pictures were taken as shown in FIG. 2. The compound effect appears to be dose dependent with maximal effect shown at […]. The first panel is for controls (untreated), the second panel at 3 mg/ml, the third panel at 1.5 mg/ml, the fourth panel at 0.75 mg/ml, and the fifth panel at 0.36 mg/ml.

C5a = C5a formation in whole blood tubing loop (ELISA); type: cell-based; conditions: heparinized human whole blood 1:1 plasmalyte, tubing loop 2 hours 37° C.
Procedure: as §1

neutrophils = assay: Neutrophil activation after tubing loop (flow cytometry CD15/CD11b); type: cell-based, human; conditions: blood after tubing loop
Procedure: as §1, with “Sample and control tubing loops were rotated vertically in a water bath for 2 hours at 37° C. After incubation, blood samples were transferred into 5 ml siliconized eppendorf tubes. The samples were separated into two aliquots; one aliquot was subjected to flow cytometry studies and the other aliquot was centrifuged to separate the plasma for the measurement of C3a and C5a.” left out
as §2

[4] = tested on: epidural fibrosis after lumbar laminectomy; assay: Rat laminectomy epidural fibrosis model, Example 6; type: in vivo; conditions: two weeks after laminectomy
Excerpt: The scar tissue attachment to the spinal cord is believed to be the cause of long-term, recurrent pain following laminectomy procedures. The epidural fibrosis refers to the scar tissue that forms following a laminectomy procedure. Laminectomy refers to back surgery of the lamina. Scar tissue forms within the laminectomy site and binds the undersurface of the erector spinae muscles to the posterior and lateral surfaces of the dura mater and to the nerve roots exiting through the dura matter. Epidural fibrosis was investigated after lumbar laminectomy in rats. In this model, a laminectomy is performed at the lumbar 3 (L3) and 5 (L5) vertebrae and then the test agent is applied to the laminectomy site. Subsequently, the laminectomy sites are examined for fibrosis by gross dissection.
Laminectomies were performed at lumbar vertebrae L3 and L5 to provide auto-controls within each animal. Gelfoam-NM2040 mix was prepared and used on Laminectomy sites in rats. Lewis inbred rats were anesthetized isofluorane. The dorsal skin was incised and the paraspinal muscles were separated from the spinous processes of lumbar vertebrae L2 through L6 to expose the L3 and L5. The spinous processes of L3 and L5 were removed and the vertebral lamina was also removed creating a rectangular laminectomy defect. The test material was placed onto the laminectomy site. […] The site and the tissue were scored 0 to 2. […]

monocytes = assay: Monocyte activation after tubing loop (flow cytometry CD14/CD11b); type: cell-based, human; conditions: blood after tubing loop
Procedure: as §1, with “Sample and control tubing loops were rotated vertically in a water bath for 2 hours at 37° C. After incubation, blood samples were transferred into 5 ml siliconized eppendorf tubes. The samples were separated into two aliquots; one aliquot was subjected to flow cytometry studies and the other aliquot was centrifuged to separate the plasma for the measurement of C3a and C5a.” left out
as §2

alternative pathway = assay: Alternative pathway (AP) activation; type: cell-based, human
Procedure: as §1

3T3 cells = assay: 3T3 cell proliferation assay (Cy Quant fluorescence); type: cell-based; conditions: 1 to 600 μg/ml, 5 days, DMEM 10% FCS
Procedure: Approximately 50,000 cells were plated in a 96 well ELISA plate. The cells were allowed to grow in DMEM with 10% FCS media for 5 days, following which the cells were treated with Cy Quant assay and the inhibition of cellular proliferation was measured using the decreased fluorescence intensity. To evaluate the effect of various concentrations of NM2040 in the cellular proliferation assay, cultures were treated with concentrations ranging from 1 to 600 μg/ml. The total fluorescence intensity was plotted against the concentrations.

Question: Which “adhesion scores compared to treatment with vehicle” value ([1]; two weeks after laminectomy) does the source give for “conjugate of dextran sulfate and 2-(butane-1-sulfonylamino)-3-[4-(4-piperidin-4-yl-butoxy)-phenyl]-propionic acid [NM2040]” here?
Answer: significantly reduces adhesion scores

Question: And the “gross appearance of laminectomy site” value ([1]; two weeks after laminectomy)?
Answer: thin easily removed connective tissue above the dura to no adhesions

Question: And the “average gross evaluation score of epidural scar (0 to 2)” value ([1]; two weeks after laminectomy, gel at site, saline sites scored 2)?
Answer: 0.5

Question: And the “histological sections of the vertebral column at L3 (Masson trichrome)” value ([1]; two weeks, compared to controls)?
Answer: smooth filling

Question: What about the “MRI appearance of laminectomy site” value ([1]; two weeks, compared to saline controls) of the same substance?
Answer: the tissue appears to be smooth

Question: What about the C3a production (C3a) of the same substance?
Answer: prevent C3a and C5a production in a dose dependent manner

Question: What about the “platelet activation (% gated CD61/CD62P dual labeled)” value (platelets [2]) of the same substance?
Answer: significant inhibition of cellular activation

Question: What about the “effect on platelets (platelet damage / number)” value (platelets [3]) of the same substance?
Answer: does not affect the platelets; also recorded: does not destroy platelets

Question: And the “glioma proliferation, effect” value (C6 cells; C6 cells, 0.36, 0.75, 1.5 and 3 mg/ml)?
Answer: inhibitory at all doses

Question: What about the “concentration of maximal effect on glioma proliferation” value (C6 cells; first statement) of the same substance?
Answer: 3 µg/mL

Question: What about the “concentration of maximal effect on glioma proliferation” value (C6 cells; second statement) of the same substance?
Answer: ~1000 µg/mL

Question: What about the C5a production (C5a) of the same substance?
Answer: prevent C3a and C5a production in a dose dependent manner

Question: And the “neutrophil activation (CD11b shift)” value (neutrophils)?
Answer: significant inhibition of cellular activation

Question: And the “adhesion scores compared to saline controls” value [4]?
Answer: significantly lower

Question: What about the “monocyte activation (CD11b shift)” value (monocytes) of the same substance?
Answer: significant inhibition of cellular activation

Question: And the “activation of the alternative pathway” value (alternative pathway)?
Answer: inhibits activation of the alternative pathway

Question: What about the 3T3 cell proliferation (3T3 cells) of the same substance?
Answer: Inhibits
